Results taken from PubChem BioAssay AID1845195 (Molecular Pharmacology Branch, DTP, NCI, 2023).

Test system: 156681-154-R-J1 tumor spheroid viability
Assay: Anticancer human tumor 156681-154-R-J1 patient-derived melanoma cell line growth inhibition
Conditions: spheroids with HUVEC and MSC; for IC50: curve of first compound; for viability, T/C: stronger effect = lower value
Method in brief: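 Complex spheroids of malignant cells with endothelial cells and mesenchymal stem cells; agents alone or combined, from near clinical Cmax (or 10 microM if unknown) down in half-log steps, 0.25% DMSO final.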

[1] = second compound 1 µM, first compound 0.0316 µM
[2] = second compound 1 µM, first compound 0.1 µM
[3] = second compound 1 µM, first compound 0.316 µM
[4] = second compound 1 µM, first compound 1 µM
[5] = second compound 1 µM, first compound 3.16 µM
[6] = second compound 1 µM, first compound 10 µM
[7] = second compound 3.16 µM, first compound 0.0316 µM
[8] = second compound 3.16 µM, first compound 0.1 µM
[9] = second compound 3.16 µM, first compound 0.316 µM
[10] = second compound 3.16 µM, first compound 1 µM
[11] = second compound 3.16 µM, first compound 3.16 µM
[12] = second compound 3.16 µM, first compound 10 µM
[13] = second compound 10 µM, first compound 0.0316 µM
[14] = second compound 10 µM, first compound 0.1 µM
[15] = second compound 10 µM, first compound 0.316 µM
[16] = second compound 10 µM, first compound 1 µM
[17] = second compound 10 µM, first compound 3.16 µM
[18] = second compound 10 µM, first compound 10 µM
[19] = second compound 31.6 µM, first compound 0.0316 µM
[20] = second compound 31.6 µM, first compound 0.1 µM
[21] = second compound 31.6 µM, first compound 0.316 µM
[22] = second compound 31.6 µM, first compound 1 µM
[23] = second compound 31.6 µM, first compound 3.16 µM
[24] = second compound 31.6 µM, first compound 10 µM
[25] = second compound 100 µM, first compound 0.0316 µM
[26] = second compound 100 µM, first compound 0.1 µM
[27] = second compound 100 µM, first compound 0.316 µM
[28] = second compound 100 µM, first compound 1 µM
[29] = second compound 100 µM, first compound 3.16 µM
[30] = second compound 100 µM, first compound 10 µM
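Further: spheroids exposed to compounds for 7 days before readout.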
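Wherever viability, T/C is given: percent of vehicle control viability where 100% = DMSO-treated spheroids.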

Row | Structure (SMILES) | IC50 (second compound 1 µM) [µM] | IC50 (second compound 3.16 µM) [µM] | IC50 (second compound 10 µM) [µM] | IC50 (second compound 31.6 µM) [µM] | IC50 (second compound 100 µM) [µM] | viability, T/C [1] [%] | viability, T/C [2] [%] | viability, T/C [3] [%] | viability, T/C [4] [%] | viability, T/C [5] [%] | viability, T/C [6] [%] | viability, T/C [7] [%] | viability, T/C [8] [%] | viability, T/C [9] [%] | viability, T/C [10] [%] | viability, T/C [11] [%] | viability, T/C [12] [%] | viability, T/C [13] [%] | viability, T/C [14] [%] | viability, T/C [15] [%] | further results
1 | CC(C)n1c(=O)n(C)c2cnc3cc(F)c(-c4ccc(OCCCN5CCCCC5)nc4)cc3c21 + Cn1nnc2c(C(N)=O)ncn2c1=O | > 10 | > 10 | > 10 | < 0.0316 | < 0.0316 | 116 | 122 | 110 | 104 | 108 | 95.1 | 85.2 | 83 | 111 | 123 | 98.9 | 71.4 | 78.5 | 63.5 | 70.8 | viability, T/C [16]: 72.4%; viability, T/C [17]: 75.5%; viability, T/C [18]: 64.1%; viability, T/C [19]: 47.2%; viability, T/C [20]: 54.5%; viability, T/C [21]: 53%; viability, T/C [22]: 48.3%; viability, T/C [23]: 52%; viability, T/C [24]: 55.8%; viability, T/C [25]: 51.9%; viability, T/C [26]: 43.3%; viability, T/C [27]: 46.8%; viability, T/C [28]: 48.2%; viability, T/C [29]: 49.5%; viability, T/C [30]: 43.4%
2 | COc1ccc([C@@H](O)c2cc(-c3ncnc4cc(N5CCOCC5)ccc34)c(F)cc2Cl)nn1 + Cn1nnc2c(C(N)=O)ncn2c1=O | > 10 | > 10 | 7.33 | > 10 | > 10 | 104 | 98.4 | 86 | 70.5 | 72.2 | 53.3 | 101 | 111 | 77.7 | 79.1 | 62 | 54.8 | 71.5 | 85.4 | 73.8 | viability, T/C [16]: 66.2%; viability, T/C [17]: 70.7%; viability, T/C [18]: 42.9%; viability, T/C [19]: 60%; viability, T/C [20]: 67.3%; viability, T/C [21]: 71.8%; viability, T/C [22]: 47.2%; viability, T/C [23]: 77.4%; viability, T/C [24]: 45.2%; viability, T/C [25]: 55%; viability, T/C [26]: 55.7%; viability, T/C [27]: 48.1%; viability, T/C [28]: 64.4%; viability, T/C [29]: 54.7%; viability, T/C [30]: 48.4%
